Where two headings read alike, the source gives them in different places.
Legend:
[1] = tested on: palbociclib-resistant MCF7 cells; assay: CellTiter Glo viability assay; format: cell-based; conditions: Homo sapiens
Procedure: (§1) An exception to this is MCF7PDRCl5-1 cells which were first cultured for 5 days without palbociclib then plated as described. MCF7PDRCl5-1 cells were treated with either a dose curve of the indicated CDK4/6i or a dose curve of INX-315 + 1 µmol/L of the indicated CDK4/6i. Cell viability was determined using the CellTiter-Glo assay (Promega, G9241) following manufacturer's instructions. Plates were processed on either BioTek Synergy2 multi-mode (Agilent) or ClarioSTAR (BMG Labtech) plate readers. T47D and MCF7 cells were seeded into […] plates using BioTek 406 (Aglient) and treated with a ten-point dose concentration from 10 µmol/L to 0.3 nmol/L of INX-315 for 2× doubling times. Plates were fixed with 4% PFA and stained with Rhodamine-Phalloidin (Bio-Trend, 00027) and DAPI (5 mg/mL, Invitrogen, catalog no. D1306). Plates were imaged using CellInsight CX7 LZR and DAPI-positive cells were counted using Thermo Fisher Scientific HCS Studio Cell Analysis Software.

[2] = tested on: MKN1; assay: CellTiter Glo viability assay; format: cell-based; conditions: Homo sapiens, MKN-1, 144 h; MKN1 gastric carcinoma, 6 days
Procedure: as §1

[3] = tested on: all CCNE1-amplified lines; assay: CellTiter Glo viability assay; format: cell-based; conditions: 144 h
Procedure: as §1

[4] = Water solubility; format: physicochemical
[5] = tested on: CDK4/6-resistant breast cancer cells; assay: Cell number dose-response (discussion summary); format: cell-based; conditions: addition of INX-315 to CDK4/6-resistant cells
Procedure: as §1

[6] = tested on: all other targets; assay: SelectScreen follow-up dose-response; format: biochemical; conditions: dose-response 50 pmol/L to 1 µmol/L; kinases with ≥80% inhibition other than CDK2 complexes and CSF1R
Excerpt: (§2) INX-315 was first evaluated in the SelectScreen Biochemical Kinase Profiling at Thermo Fisher Scientific (Madison, WI). The primary screen consisted of INX-315 dosed at a single concentration of 100 nmol/L in 1% DMSO across each platform within the SelectScreen array of assays, LanthaScreen Eu Kinase Binding Assay; AdaptaScreen; and Z'LyteScreen using preestablished conditions at Thermo Fisher Scientific as shown in Supplementary Table S2. […] The follow-up screen consisted of 10-point dose–response curves for INX-315 from 1 µmol/L to 0.0495 nmol/L.

[7] = biological target: CDK2/cyclin A1/E1/O (Homo sapiens, UniProt P24941); assay: SelectScreen follow-up dose-response; format: biochemical; conditions: dose-response 50 pmol/L to 1 µmol/L
Excerpt: as §2

[8] = biological target: CSF1R (Homo sapiens, UniProt P07333); assay: SelectScreen follow-up dose-response; format: biochemical; conditions: dose-response 50 pmol/L to 1 µmol/L
Chain of CSF1R (P07333 20-972): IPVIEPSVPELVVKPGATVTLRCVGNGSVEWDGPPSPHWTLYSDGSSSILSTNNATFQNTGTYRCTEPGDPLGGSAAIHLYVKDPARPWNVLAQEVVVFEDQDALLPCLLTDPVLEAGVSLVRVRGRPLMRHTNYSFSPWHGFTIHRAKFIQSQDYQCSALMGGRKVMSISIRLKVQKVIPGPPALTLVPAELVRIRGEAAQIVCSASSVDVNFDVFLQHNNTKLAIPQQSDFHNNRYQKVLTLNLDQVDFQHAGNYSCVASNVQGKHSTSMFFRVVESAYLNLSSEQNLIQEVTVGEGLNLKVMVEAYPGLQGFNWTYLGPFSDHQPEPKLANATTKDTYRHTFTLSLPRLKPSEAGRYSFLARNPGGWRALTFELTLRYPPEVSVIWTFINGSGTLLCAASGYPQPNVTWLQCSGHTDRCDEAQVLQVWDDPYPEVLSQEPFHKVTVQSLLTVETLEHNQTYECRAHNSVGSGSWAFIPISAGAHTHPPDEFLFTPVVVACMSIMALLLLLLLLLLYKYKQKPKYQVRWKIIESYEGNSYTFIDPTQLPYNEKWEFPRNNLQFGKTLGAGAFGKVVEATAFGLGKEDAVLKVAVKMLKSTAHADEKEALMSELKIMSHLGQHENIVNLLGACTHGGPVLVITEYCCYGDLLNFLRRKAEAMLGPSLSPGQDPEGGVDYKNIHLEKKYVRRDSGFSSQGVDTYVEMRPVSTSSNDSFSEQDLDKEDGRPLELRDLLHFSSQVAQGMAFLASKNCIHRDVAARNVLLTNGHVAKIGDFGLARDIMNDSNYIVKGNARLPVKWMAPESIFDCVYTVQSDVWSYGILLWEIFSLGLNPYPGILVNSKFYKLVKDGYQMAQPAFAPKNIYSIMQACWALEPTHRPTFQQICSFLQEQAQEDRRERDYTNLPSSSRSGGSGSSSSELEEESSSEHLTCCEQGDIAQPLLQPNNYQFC
Excerpt: as §2

[9] = biological target: T1, CDK2/cyclin E1 (Homo sapiens, UniProt P24941); assay: NanoBRET live cell target engagement; format: binding
T1 construct: purchased Millipore 14-475
Procedure: (§3) Reaction Bio (Malvern, PA) conducted NanoBRET assays utilizing Promega NanoLuc technology with two replicates per experiment. The CDK2/E1 and CDK1/B1 values are the average of two separate experiments.
(§4) HEK293 cells were transfected using Opti-MEM without serum containing ratios of 9.0 µg/mL of Transfection Carrier DNA, 1.0 µg/mL of NanoLuc fusion vector DNA and 1 mL of Opti-MEM without phenol red. 30 µL of FuGENE HD transfection reagent was added to each milliliter of DNA mixture to form lipid:DNA complex. After incubation for 20 minutes at room temperature, 1 part lipid/DNA complex was added to 20 parts HEK293 cells in suspension. Cells were then plated and incubated overnight before being trypsinized and resuspended at 2 × 10^5 cells/mL. NanoBRET tracer reagent was added to cells at a ratio of 1 part tracer to 20 parts cell suspension. Cells were added to a 384-well plate and incubated for 1 hour. Plates were removed and incubated at room temperature for 15 minutes to equilibrate before 3x complete substrate plus inhibitor was added. After 2–3 minutes of incubation at room temperature, donor and acceptor wavelengths (460 nm and 600 nm, respectively) were measured using an Envision 2104 plate reader.

[10] = biological target: T2, CDK9/cyclin T1 (Homo sapiens, UniProt P50750); assay: NanoBRET live cell target engagement; format: binding
T2 construct: purchased Carna 04-110
T2 sequence (P50750 whole entry): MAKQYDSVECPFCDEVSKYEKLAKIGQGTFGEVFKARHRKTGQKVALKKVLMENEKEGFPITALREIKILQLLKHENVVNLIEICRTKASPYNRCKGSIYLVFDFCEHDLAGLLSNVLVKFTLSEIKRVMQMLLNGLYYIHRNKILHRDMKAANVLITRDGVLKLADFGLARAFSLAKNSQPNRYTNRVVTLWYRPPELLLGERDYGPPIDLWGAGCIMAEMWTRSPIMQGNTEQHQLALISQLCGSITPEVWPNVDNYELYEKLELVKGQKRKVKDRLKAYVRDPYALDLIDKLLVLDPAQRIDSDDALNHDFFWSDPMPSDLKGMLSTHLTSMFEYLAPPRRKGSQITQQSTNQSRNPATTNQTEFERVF
T2 sequence (O60563 whole entry partner): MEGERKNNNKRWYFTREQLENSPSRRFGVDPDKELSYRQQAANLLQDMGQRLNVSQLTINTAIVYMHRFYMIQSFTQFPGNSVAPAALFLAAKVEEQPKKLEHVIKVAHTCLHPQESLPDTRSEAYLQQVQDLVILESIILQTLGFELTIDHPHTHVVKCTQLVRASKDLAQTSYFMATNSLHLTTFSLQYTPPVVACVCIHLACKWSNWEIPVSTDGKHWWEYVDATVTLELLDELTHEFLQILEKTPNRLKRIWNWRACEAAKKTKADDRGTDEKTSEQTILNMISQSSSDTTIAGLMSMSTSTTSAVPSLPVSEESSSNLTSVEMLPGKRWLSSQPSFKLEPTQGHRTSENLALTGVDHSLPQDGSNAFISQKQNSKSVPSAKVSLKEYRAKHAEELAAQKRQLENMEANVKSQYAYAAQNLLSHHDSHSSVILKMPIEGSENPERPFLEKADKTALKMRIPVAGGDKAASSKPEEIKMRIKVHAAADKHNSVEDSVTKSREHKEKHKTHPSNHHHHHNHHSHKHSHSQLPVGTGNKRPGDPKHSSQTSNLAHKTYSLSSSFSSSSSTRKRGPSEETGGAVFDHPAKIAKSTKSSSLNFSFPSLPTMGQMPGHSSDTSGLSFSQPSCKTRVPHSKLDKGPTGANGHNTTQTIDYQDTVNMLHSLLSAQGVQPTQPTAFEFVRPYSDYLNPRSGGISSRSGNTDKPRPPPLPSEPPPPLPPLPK
Procedure: as §3, §4

[11] = biological target: T3, CDK1/cyclin B1 (Homo sapiens, UniProt P06493); assay: NanoBRET live cell target engagement; format: binding
T3 construct: purchased Millipore 14-450M
T3 sequence (P06493 whole entry): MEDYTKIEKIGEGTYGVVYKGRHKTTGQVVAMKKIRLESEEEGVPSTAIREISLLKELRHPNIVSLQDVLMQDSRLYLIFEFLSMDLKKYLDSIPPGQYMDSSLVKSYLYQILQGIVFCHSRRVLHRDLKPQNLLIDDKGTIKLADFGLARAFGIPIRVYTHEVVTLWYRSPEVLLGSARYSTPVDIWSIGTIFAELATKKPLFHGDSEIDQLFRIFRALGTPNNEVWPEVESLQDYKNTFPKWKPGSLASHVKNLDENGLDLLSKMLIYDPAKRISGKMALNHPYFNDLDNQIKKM
T3 sequence (P14635 whole entry partner): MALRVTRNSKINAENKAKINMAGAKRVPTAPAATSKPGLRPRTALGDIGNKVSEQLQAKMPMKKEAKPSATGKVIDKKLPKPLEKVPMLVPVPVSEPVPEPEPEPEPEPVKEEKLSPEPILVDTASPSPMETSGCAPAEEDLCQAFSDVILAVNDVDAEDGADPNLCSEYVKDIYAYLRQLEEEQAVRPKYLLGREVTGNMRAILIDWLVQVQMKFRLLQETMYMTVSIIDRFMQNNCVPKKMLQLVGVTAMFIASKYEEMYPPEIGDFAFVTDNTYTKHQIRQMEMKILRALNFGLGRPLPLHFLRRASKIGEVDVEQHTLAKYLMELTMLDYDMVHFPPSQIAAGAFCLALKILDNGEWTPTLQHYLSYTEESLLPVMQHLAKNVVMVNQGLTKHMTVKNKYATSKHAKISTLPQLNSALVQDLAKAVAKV
Procedure: as §3, §4

[12] = biological target: T4, CDK2/cyclin A1 (Homo sapiens, UniProt P24941); assay: NanoBRET live cell target engagement; format: binding
T4 construct: host or cells: HEK293
Procedure: as §3, §4

[13] = Microsomal stability assay; format: in vitro ADME
Procedure: Microsomal stability was determined by Absorption Systems (Exton, PA). INX-315 was tested in mixed-gender human liver microsomes (Lot #1010420), male Sprague-Dawley rat liver microsomes (Lot #1910100), male CD-1 mouse liver microsomes (Lot #2010017), and male beagle dog liver microsomes (Lot #2010046) were purchased from XenoTech/BioIVT by Absorption Systems. The reaction mixture, minus NADPH, was prepared as described below. The test article was added into the reaction mixture at a final concentration of 1 µmol/L. The control compound, testosterone, was run simultaneously with the test article in a separate reaction. The reaction mixture (without cofactor) was equilibrated in a shaking water bath at 37°C for 5 minutes. The reaction was initiated by the addition of the cofactor, and the mixture was incubated in a shaking water bath at 37°C. Aliquots (100 µL) were withdrawn at 0, 10, 20, 30, and 60 minutes. Test article and testosterone samples were immediately combined with 400 µL of ice-cold 50/50 acetonitrile (ACN)/H2O containing 0.1% formic acid and internal standard to terminate the reaction. The samples were then mixed and centrifuged to precipitate proteins. All samples were assayed by LC-MS/MS using electrospray ionization. The peak area response ratio (PARR) of analyte to internal standard at each time point was compared to the PARR at time 0 to determine the percent remaining at each time point. Half-lives and clearance were calculated using GraphPad software (RRID:SCR_002798), fitting to a single-phase exponential decay equation.

[14] = NanoBRET intracellular IC50 ratio

NS(=O)(=O)c1ccc(Nc2ncc3cc4n(c3n2)C2(CCCCC2)C(=O)NN4)cc1 [INX-315]
IC50 ([1]; MCF7, Supp Fig S9D, DMSO + INX-315, read-out: INX-315 IC50): 906 nM
IC50 ([1]; MCF7, cultured out of CDK4/6i, read-out: IC50 to INX-315): < 900 nM
IC50 ([1]; MCF7, with abemaciclib (1 µmol/L), read-out: IC50 to INX-315): 28 nM
IC50 ([1]; MCF7, with lerociclib (1 µmol/L), read-out: IC50 to INX-315): 23 nM
IC50 ([1]; MCF7, with palbociclib (1 µmol/L), read-out: IC50 to INX-315): 14 nM
IC50 [2]: 44 nM
IC50 [3]: 36 nM
solubility [4]: < 50 µg/mL
IC50 [5]: < 25 nM
IC50 [6]: > 10 nM
IC50 [7]: ≤ 4 nM
IC50 [8]: 2.29 nM
Fold vs. CDK2/E1, CDK2/cyclin E1 [9, 14]: 1
increase of intracellular IC50 over the biochemical IC50, CDK2/cyclin E1 ([9]; NanoBRET vs biochemical): 4 fold
IC50 ([9]; NanoBRET, HEK293 cells, value (SD), read-out: intracellular IC50 (nmol/L) CDK2/cyclin E1): 2.3 nmol/L
Fold vs. CDK2/E1, CDK9/cyclin T1 [10, 14]: 1283
IC50 ([10]; NanoBRET, HEK293 cells, value (SD), read-out: intracellular IC50 (nmol/L) CDK9/cyclin T1): 2950 nmol/L
Fold vs. CDK2/E1, CDK1/cyclin B1 [11, 14]: 163
IC50 ([11]; NanoBRET, HEK293 cells, value (SD), read-out: intracellular IC50 (nmol/L) CDK1/cyclin B1): 374 nmol/L
Fold vs. CDK2/E1, CDK2/cyclin A1 [12, 14]: 31
IC50 ([12]; NanoBRET, HEK293 cells, value (SD), read-out: intracellular IC50 (nmol/L) CDK2/cyclin A1): 71 nmol/L
half-life at 1 µmol/L ([13]; both sexes, human, liver microsomes, 1 µmol/L, 60 min incubation, read-out: Half-life): > 1 h
half-life at 1 µmol/L ([13]; both sexes, human, liver microsomes, longer than the duration of the experiment, read-out: calculated half-life (in parenthesis)): 1.78 h
half-life at 1 µmol/L ([13]; male, CD-1, liver microsomes, Mouse microsomes, 60 min incubation): 0.44 h
half-life at 1 µmol/L ([13]; male, Sprague-Dawley, rat, liver microsomes, 1 µmol/L, 60 min incubation, read-out: Half-life): > 1 h
half-life at 1 µmol/L ([13]; male, Sprague-Dawley, rat, liver microsomes, longer than the duration of the experiment, read-out: calculated half-life (in parenthesis)): 1.11 h
half-life at 1 µmol/L ([13]; male, beagle, dog, liver microsomes, 1 µmol/L, 60 min incubation, read-out: Half-life): > 1 h
half-life at 1 µmol/L ([13]; male, beagle, dog, liver microsomes, longer than the duration of the experiment, read-out: calculated half-life (in parenthesis)): 1.34 h

Source: publication PMC10905675, “INX-315, a Selective CDK2 Inhibitor, Induces Cell Cycle Arrest and Senescence in Solid Tumors” (Cancer Discovery, 2023)
